Patent publication US8466311B2, “Neuroprotective compositions and methods” (Sanford-Burnham Medical Research Institute, priority 2006, dated 2013)

Columns and labels:
ARE = ARE luciferase reporter in cortical cultures; type: cell-based, rat
Method: Cortical cultures (E17, DIV21) were transfected with ARE-luciferase reporter gene DNA (1 μg/well) and co-transfected with pEF6 or pEFNrf2DN. CA (3 μM) or vehicle was then added to the cultures. After a 24-h incubation, cell lysates were used for luciferase reporter gene assays. Values are mean±SEM; *p<0.01 by ANOVA.
Next, transcriptional activation of the HO-1 promoter by NEPP was examined by reporter gene assays in primary neurons. Cortical cultures were transfected with reporter cDNAs (1 μg per well), and 0.7 μM NEPP11 was added to the cultures. After a 24 h incubation, cell lysates were subjected to luciferase reporter assays. […] If the Keap1/Nrf2 pathway, indeed, mediates activation of the HO-1 promoter by NEPP11, mutant Nrf2 protein should inhibit this activation. […] Moreover, the selective activation in neurons may explain the relatively small amplitude of total HO-1 activation seen in the mixed neuronal/glial culture system in which glia predominate.
Transient transfection and measurement of luciferase activity. PC12h cells or cerebrocortical cultures (E17, DIV21) were incubated for 5 h in EBSS containing 1 μg of a plasmid DNA plus Lipofectamine 2000 (Invitrogen, Carlsbad, Calif.). Transfection efficiency was normalized to β-galactosidase activity expressed by co-transfection with pSV-β-gal (Promega). For reporter gene assays, cells were transfected with 1 μg of the reporter construct [ARE(GSTYa)-luciferase] and 0.2 μg pSV-β-gal for 1 hour. The cells were then washed in PBS alone and incubated in the culture medium for another 24 h with or without CA. Firefly luciferase activity and β-galactosidase activity in cell lysates were measured using a Luciferase System and β-Galactosidase Enzyme Assay System, respectively (Promega, Madison, Wis.).
To confirm that CA activated the ARE in these cortical cultures, we performed luciferase reporter gene assays. […] CA accumulates both in neurons and in non-neuronal cells (FIG. 5).

MCAO/reperfusion injury = experiment: Focal cerebral ischemia: MCAO/reperfusion in mice; type: in vivo, mouse
Method: Focal cerebral ischemia and reperfusion. The filament model of middle cerebral artery occlusion (MCAO)/reperfusion was used as described (Gu et al., Science 297:1186-1190, 2002; see Supporting Methods in Supporting Text).
NEPP11 or vehicle was injected intraperitoneally (i.p.) 1 h before and 4 h after MCAO. The area of brain infarction (corrected for possible edema) was assessed on coronal sections from vehicle- and NEPP11-treated mice stained with 2.5% 2,3,5-triphenyltetrazolium chloride 24 h after the onset of reperfusion.
Focal Cerebral Ischemia and Reperfusion. NEPP11 was injected at 100 mg/ml in a 7.5% solution of DMSO in PBS; controls received the diluent alone. The investigator was blinded as to the treatment group. The injected volume was 10 ml/g of body weight, corresponding to 1 mg/kg. […] Other physiological parameters were monitored, including systemic blood pressure, glucose, and arterial blood gasses and pH. […] Occlusion and reperfusion of blood flow were monitored by laser Doppler flowmetry. […]
After the reperfusion period, the animals were killed. […] Areas of infarction occurred in the right middle cerebral artery territory of each brain slice and were quantified with a computerized image analysis system (NIH image 1.62) as described (Gu et al., Science 297:1186-1190, 2000). […]

HO-1 and γ-GCS = experiment: Phase 2 enzyme induction in brain (RT-PCR); type: in vivo, mouse; conditions: food containing 0.03% CA for a week
Method: RT-PCR. In order to examine phase 2 gene induction by CA in PC12h cells and brain lysates, RT-PCR of total RNA from cortical cultures was performed using the following primer pairs (Hosoya et al., J. Bioi. Chern. 29:27244-27250, 2005; Kobayashi et al., Mol. Cell. Biol. 26:221-229, 2006): CypA (89 bp), 5′-ACAGGTCCTGGCATCTTGTC-3′ (SEQ ID NO: 18)(sense) and 5′-[…] -3′ (SEQ ID NO: 19)(antisense); H0-1 (284 bp), 5′-CAGTCGCCTCCAGAGTTTCC -3′ (SEQ ID NO: 20)(sense) and 5′- TACAAGGAGGCCATCACCAGC-3′ (SEQ ID NO: 21)(antisense); GCL-M (280 bp), 5′- CTGCTAAACTGTTCATTGTAGG-3′ (SEQ ID NO: 22)(sense) and 5′- CTA TTG GGT TIT ACC TGT G-3′ (SEQ ID NO: 23)(antisense); GCL-C (213 bp), 5′- GTC TIC AGG TGA ACA TIC CAA GC-3′ (SEQ ID NO: 24)(sense) and 5′- TGTTCTTCAGGGGCTCCAGTC-3′ (SEQ 10 NO: 25)(antisense); and NQO1 (212 bp), 5′- GTG TAC AGC ATI GGC CAC AC-3′ (SEQ 10 NO: 26)(sense) and 5′AAATGATGGCCCACAGAAAG-3′ (SEQ ID NO: 27)(antisense).
Mice were allowed free access to food containing 0.03% CA for a week. Their brains were then removed, and extracts were prepared and measured for GSH and GSSG levels. Under these conditions, CA increased both total GSH+GSSG and the ratio of GSH/GSSG (FIG. 6). […] Therefore, we concluded that orally-administered CA could not only reach the brain but was also effective in activating potentially neuroprotective pathways.

cerebrocortical neurons = experiment: NMDA-induced neuronal cell death (excitotoxicity) in cerebrocortical cultures
Method: We stained the cultures with both anti-MAP-2 and anti-NeuN monoclonal antibodies to label neuronal dendrites and nuclei, respectively. Vehicle or NEPP11 (0.7 μM) was added to cerebrocortical cultures (E17 and DIV14-21) 60 min before treatment with NMDA (50 μM) for 15 min. The cultures were then incubated for 20 h and subsequently stained with anti-MAP-2 and anti-NeuN and with Hoechst dye. Apoptotic nuclei were identified by morphological changes seen with Hoechst staining. […] We also added zinc protoporphyrin (ZnPP, 10 μM), a relatively specific HO-1 antagonist, simultaneously with NEPP11. The number of apoptotic neurons was assessed by determining the apoptotic index [(number of condensed nuclei in MAP-2 or NeuN-positive cells)/(number of total MAP-2 or NeuN-positive cells)×100%], as reported by Bonfoco et al. (Proc. Natl. Acad. Sci. USA 92:7162-7166, 1995).
Cerebrocortical cultures were prepared from embryonic day-17 Sprague-Dawley rats and used at day 14-21 in vitro (DIV14-21), as described (Bonfoco et al., Proc. Natl. Acad. Sci. USA 92:7162-7166, 1995). To induce predominantly neuronal apoptosis (rather than necrosis), we exposed cortical cultures to 50 mM NMDA plus 5 mM glycine/1.8 mM CaCl2 in nominally Mg^2+-free Earle's balanced salt solution for 15 min (Bonfoco et al., Proc. Natl. Acad. Sci. USA 92:7162-7166, 1995). After exposure to NMDA, the cultures were returned to normal medium containing vehicle or NEPP11 and incubated for 20 hr before analyzing cell survival. To assess the ability of NEPP compounds to block NMDA-induced neuronal apoptosis, we identified apoptotic neurons by double immunofluorescence with anti-NeuN and anti-MAP-2 to specifically label neurons and with Hoechst staining for nuclear morphology to detect apoptosis. The percentage of neurons and non-neuronal cells in our cultures was 33.6±4.9% and 66.4±4.4% (n=4), respectively.
In addition, we used mature cortical cultures (E17, DIV21) to assess excitotoxicity because functional NMDA receptors are expressed on these neurons.

HO-1 protein [1] = experiment: Induction of HO-1 protein in HT22 cells (Western blot); type: cell-based; conditions: 24 h, at NEPP concentration that prevented neuronal cell death
Method: HT22 cells (Satoh et al., Eur. J. Neurosci. 17:2249-2255, 2003; Satoh et al., J. Neurochem. 77:50-62, 2001; Sagara et al., J. Biol. Chem. 277:36204-36215, 2002) and primary cortical neurons (Bonfoco et al., Proc. Natl. Acad. Sci. USA 92:7162-7166, 1995) were cultured as described.
These assays were performed as described (Gu et al., Science 297:1186-1190, 2002) by using the following antibodies: anti-HO-1 (SPA895, 1:1000, Santa Cruz Biotechnology), anti-Keap1 (1:100, Santa Cruz Biotechnology), or anti-actin (1:5,000, Oncogene Research Products, San Diego).
Thereafter, cell lysates (10 μg per lane) were subjected to SDS-PAGE and probed with anti-HO-1 or anti-β-actin.

[2] = test system: cAMP-responsive element (CRE); experiment: Enhancer element luciferase reporter p3xCREluc; type: cell-based; conditions: NEPP11 2 μM
Method: (§1) Because the E1 and E2 regions also contain other enhancer elements, we tested the effects of NEPP11 (2 μM) on the expression of luciferase activity derived from these elements, including the cAMP-responsive element (CRE; p3xCREluc), AP-1 binding site (p3xAP1luc), NF-κB binding site (p3xNF-κBluc), NFAT-binding site (p3xNFATluc), ETS-binding site (p3xETSluc), and MEF2-binding site (p3xMEF2luc).

NF-κB binding site = experiment: Enhancer element luciferase reporter p3xNF-κBluc; type: cell-based; conditions: NEPP11 2 μM
Method: as §1

Nrf2-GFP fusion protein = experiment: Localization of Nrf2-GFP fusion protein in transfected HT22 cells; type: cell-based; conditions: NEPP11 2 μM, 24 h
Method: Activation of the Keap1/Nrf2 pathway by NEPP compounds in a neuronal cell line. Next, we examined the localization of an Nrf2-Green Fluorescent Protein (GFP) fusion protein (Numazawa et al., Am. J. Physiol. 285:C334-C342, 2003) in transfected HT22 cells. HT22 cells transfected with pNrf2-GFP were treated with vehicle or NEPP11 (2 μM) for 24 h and observed under epifluorescence microscopy. […] Thus we hypothesized that nuclear levels of Nrf2 protein should increase when cells are exposed to an electrophile such as NEPP, which promotes nuclear translocation. To test this hypothesis, cytosolic and nuclear fractions (200 μg protein) from cells that had been treated with vehicle or 2 μM NEPP11 for 24 h were precipitated and probed with anti-Nrf2 antibody and with anti-NeuN, a neuronal-specific nuclear protein. Indeed, we confirmed this hypothesis.

HO-1 protein [3] = experiment: HO-1 induction in mouse brain after i.p. injection; type: in vivo; conditions: NEPP11 i.p. 12 h before killing
Method: To test the hypothesis that NEPP protection against brain ischemia is associated with HO-1 expression, we examined HO-1 induction by Western blotting and immunostaining. NEPP11 or vehicle was injected intraperitoneally (i.p.) 12 h before the animals were killed. Brain lysates (10 μg per lane) were extracted and subjected to Western blotting with anti-HO-1 and anti-β-actin antibody. For immunostaining, coronal sections of mouse brain were stained with anti-MAP-2 and anti-HO-1 antibodies.

With `CC(C)c1cc2c(c(O)c1O)[C@@]1(C(=O)O)CCCC(C)(C)[C@@H]1CC2` [CA, carnosic acid] the “ARE activation with Nrf2-DN” value (ARE; 3 μM CA) was “abrogated by Nrf2-DN”, the ARE-mediated transcription increase (ARE; 3 μM CA, E17 DIV21, 24 h) was 2.3 fold and the “infarct volume, % of the ipsilateral hemisphere” value (MCAO/reperfusion injury; CA 1 mg/kg i.p. 1 h prior to MCAO, 2-h MCAO/24-h reperfusion, vehicle 51.2±2.4%) was 34.5±3.6%. For the same compound, the “induction of phase 2 enzymes HO-1 and γ-GCS in brain” value (HO-1 and γ-GCS) was “significant induction” and the viability at 3 µM (cerebrocortical neurons; Rattus norvegicus, Cerebrocortical neuron, read-out: survival (viable cells) after NMDA) was 36 ± 2.3%.
For `COC(=O)CCCCC/C=C1/C(=O)C=C[C@H]1CCCCCCc1ccc(C)cc1` [NEPP11], the “HO-1 protein levels over baseline” value (HO-1 protein [1]) was “approximately five-fold”, the “activity of p3xCREluc” value [2] was “slightly depressed” and the p3xNF-κBluc expression (NF-κB binding site) was “minimally activated”. The “localization of Nrf2-GFP” value (Nrf2-GFP fusion protein) was “translocated into the nucleus”, the “activity of the ARE core element” value (ARE; NEPP11 0.7 μM, 24 h) was “significantly increased” and the “infarct area in coronal sections” value (MCAO/reperfusion injury; NEPP11 1 mg/kg i.p. 1 h before and 4 h after MCAO, 2 hr MCAO, 24 hr reperfusion) was “significantly reduced”. For the same compound, the “level of HO-1 protein in the brain” value (HO-1 protein [3]) was “increased” and the “number of apoptotic neurons” value (cerebrocortical neurons; NEPP11 0.7 μM 60 min before NMDA 50 μM 15 min, 20 h) was “significantly decreased”.
